Tests used:
[1] = tested on: Glomerella lagenarium (Colletotrichum lagenarium); assay: Glomerella lagenarium (Colletotrichum lagenarium) / liquid culture (anthracnose); assay type: cell-based; details: Colletotrichum orbiculare, PDB potato dextrose broth, 24° C., 3-4 days after application, read-out: control of Glomerella lagenarium (inhibition of growth, photometric)
Procedure: (§1) Example B3: Glomerella lagenarium (Colletotrichum lagenarium)/Liquid Culture (Anthracnose) Conidia of the fungus from cryogenic storage are directly mixed into nutrient broth (PDB potato dextrose broth). After placing a (DMSO) solution of test compound into a microtiter plate (96-well format), the nutrient broth containing the fungal spores is added. The test plates are incubated at 24° C. and the inhibition of growth is measured photometrically 3-4 days after application. […] […]-191.

[2] = tested on: Blumeria graminis f. sp. tritici (Erysiphe graminis f. sp. tritici); assay: Blumeria graminis f. sp. tritici / wheat / leaf disc preventative (powdery mildew on wheat); assay type: in vivo; details: foliar, wheat leaf segments cv. Kanzler, inoculated 1 day after application, assessed 6-8 days after application, read-out: control of Blumeria graminis f. sp. tritici (percent disease control compared to untreated)
Text: Example B4: Blumeria graminis f. sp. tritici (Erysiphe graminis f. sp. tritici)/Wheat/Leaf Disc Preventative (Powdery Mildew on Wheat) Wheat leaf segments cv. Kanzler are placed on agar in a multiwell plate (24-well format) and sprayed with the formulated test compound diluted in water. The leaf disks are inoculated by shaking powdery mildew infected plants above the test plates 1 day after application. […] […]-192.

[3] = tested on: Magnaporthe grisea (Pyricularia oryzae); assay: whole plant or invertebrate; assay type: in vivo; details: foliar, read-out: control of Magnaporthe grisea (percent disease control compared to untreated)
[4] = tested on: Mycosphaerella graminicola (Septoria tritici); assay: Mycosphaerella graminicola (Septoria tritici) / liquid culture (Septoria blotch); assay type: cell-based; details: Zymoseptoria tritici, PDB potato dextrose broth, 24° C., 4-5 days after application, read-out: control of Mycosphaerella graminicola (inhibition of growth, photometric)
Procedure: as §1, with “B15: Mycosphaerella graminicola (Septoria tritici)/Liquid” for “B3: Glomerella lagenarium (Colletotrichum lagenarium)/Liquid”, “(Septoria Blotch)” for “(Anthracnose)”, “determined” for “measured”, “4-5” for “3-4”

[5] = tested on: Monographella nivalis (Microdochium nivale); assay: Monographella nivalis (Microdochium nivale) / liquid culture (foot rot cereals); assay type: cell-based; details: PDB potato dextrose broth, 24° C., 4-5 days after application, read-out: control of Monographella nivalis (inhibition of growth, photometric)
Procedure: Example B7: Monographella nivalis (Microdochium nivale)/Liquid Culture (Foot Rot Cereals) Conidia of the fungus from cryogenic storage are directly mixed into nutrient broth (PDB potato dextrose broth). After placing a (DMSO) solution of test compound into a microtiter plate (96-well format), the nutrient broth containing the fungal spores is added. The test plates are incubated at 24° C. and the inhibition of growth is determined photometrically 4-5 days after application. […] […]-190.

SMILES | inhibition at 20 ppm [1] [%] | pest or weed control at 200 ppm [2] [%] | pest or weed control at 200 ppm [3] [%] | inhibition at 20 ppm [4] [%] | inhibition at 20 ppm [5] [%]
COc1ccc(N(C#N)c2cc(F)cc(F)c2)nc1C(=O)NC1CCC1(C)C (centres unmarked) [Compound P-20, 6-(N-cyano-3,5-difluoro-anilino)-N-(2,2-dimethylcyclobutyl)-3-methoxy-pyridine-2-carboxamide] | ≥ 80 | ≥ 80 | ≥ 80 | ≥ 80 | 
COc1ccc(Nc2cc(F)nc(F)c2)nc1C(=O)NCC(C)c1ccccc1 (centres unmarked) [Compound P-32, 6-[(2,6-difluoro-4-pyridyl)amino]-3-methoxy-N-(2-phenylpropyl)pyridine-2-carboxamide] |  |  | ≥ 80 | ≥ 80 | 
COc1ccc(Nc2cnsc2)nc1C(=O)NC1CCC12CCCC2 (centres unmarked) [Compound P-33, 6-(isothiazol-4-ylamino)-3-methoxy-N-spiro[3.4]octan-3-yl-pyridine-2-carboxamide] | ≥ 80 |  | ≥ 80 | ≥ 80 | ≥ 80
COc1ccc(Nc2cc(F)nc(F)c2)nc1C(=O)NCC#CC(C)(C)C [Compound P-35, 6-[(2,6-difluoro-4-pyridyl)amino]-N-(4,4-dimethylpent-2-ynyl)-3-methoxy-pyridine-2-carboxamide] |  |  | ≥ 80 | ≥ 80 | 
COc1ccc(Nc2cc(F)nc(F)c2)nc1C(=O)NCC1(C(F)(F)F)CC1 [Compound P-49, 6-[(2,6-difluoro-4-pyridyl)amino]-3-methoxy-N-[[1-(trifluoromethyl)cyclopropyl]methyl]pyridine-2-carboxamide] |  |  | ≥ 80 |  | 
COc1ccc(Nc2cc(F)nc(F)c2)nc1C(=O)NCC1(C)CCOC2(CCC2)C1 (centres unmarked) [Compound P-52, 6-[(2,6-difluoro-4-pyridyl)amino]-3-methoxy-N-[(8-methyl-5-oxaspiro[3.5]nonan-8-yl)methyl]pyridine-2-carboxamide] | ≥ 80 | ≥ 80 | ≥ 80 |  | 
COc1ccc(Nc2cc(F)cc(F)c2)nc1C(=O)NC(C)C1CCOCC1 (centres unmarked) [Compound P-61, 6-(3,5-difluoroanilino)-3-methoxy-N-(1-tetrahydropyran-4-ylethyl)pyridine-2-carboxamide] | ≥ 80 | ≥ 80 | ≥ 80 |  | 
COc1ccc(Nc2cc(F)cc(F)c2)nc1C(=O)NCc1cnn(C)n1 [Compound P-69, 6-(3,5-difluoroanilino)-3-methoxy-N-[(2-methyltriazol-4-yl)methyl]pyridine-2-carboxamide] |  |  | ≥ 80 |  | 
COc1ccc(Nc2cc(F)cc(F)c2)nc1C(=O)NC(C)c1ncc(C)o1 (centres unmarked) [Compound P-71, 6-(3,5-difluoroanilino)-3-methoxy-N-[1-(5-methyloxazol-2-yl)ethyl]pyridine-2-carboxamide] | ≥ 80 |  | ≥ 80 | ≥ 80 | 
COc1ccc(Nc2cc(F)nc(F)c2)nc1C(=O)NC1(c2ccc(F)cc2)CC1 [Compound P-89, 6-[(2,6-difluoro-4-pyridyl)amino]-N-[1-(4-fluorophenyl)cyclopropyl]-3-methoxy-pyridine-2-carboxamide] |  |  | ≥ 80 |  | 
COc1ccc(Nc2cc(F)nc(F)c2)nc1C(=O)NC1(Cc2ccc(Cl)cc2)CC1 [Compound P-90, N-[1-[(4-chlorophenyl)methyl]cyclopropyl]-6-[(2,6-difluoro-4-pyridyl)amino]-3-methoxy-pyridine-2-carboxamide] | ≥ 80 |  | ≥ 80 |  | 
CCOc1ccc(Nc2cc(F)nc(F)c2)nc1C(=O)NC(C)(C)C [Compound P-95, N-tert-butyl-6-[(2,6-difluoro-4-pyridyl)amino]-3-ethoxy-pyridine-2-carboxamide] | ≥ 80 | ≥ 80 | ≥ 80 |  | ≥ 80
COc1ccc(Nc2cncc(F)c2)nc1C(=O)NC(C)(C)C [Compound P-103, N-tert-butyl-6-[(5-fluoro-3-pyridyl)amino]-3-methoxy-pyridine-2-carboxamide] |  | ≥ 80 | ≥ 80 |  | 
COc1ccc(Nc2cncc(F)c2)nc1C(=O)NC1CCC1(C)C (centres unmarked) [Compound P-104, N-(2,2-dimethylcyclobutyl)-6-[(5-fluoro-3-pyridyl)amino]-3-methoxy-pyridine-2-carboxamide] | ≥ 80 | ≥ 80 | ≥ 80 | ≥ 80 | ≥ 80
CC(C)(C)CNC(=O)c1cccc(Nc2cc(F)cc(F)c2)n1 [Compound P-111, 6-(3,5-difluoroanilino)-N-(2,2-dimethylpropyl)pyridine-2-carboxamide] | ≥ 80 |  | ≥ 80 | ≥ 80 | ≥ 80
CC(C)(C)CNC(=O)c1cccc(Nc2cc(F)nc(F)c2)n1 [Compound P-113, 6-[(2,6-difluoro-4-pyridyl)amino]-N-(2,2-dimethylpropyl)pyridine-2-carboxamide] | ≥ 80 | ≥ 80 | ≥ 80 | ≥ 80 | ≥ 80
COc1ccc(Nc2cc(F)nc(F)c2)nc1C(=O)NC1(C#N)CCC1 [Compound P-126, N-(1-cyanocyclobutyl)-6-[(2,6-difluoro-4-pyridyl)amino]-3-methoxy-pyridine-2-carboxamide] |  |  | ≥ 80 |  | 
COc1ccc(Nc2cc(F)cc(F)c2)nc1C(=O)NC1(C)COC1 [Compound P-128, 6-(3,5-difluoroanilino)-3-methoxy-N-(3-methyloxetan-3-yl)pyridine-2-carboxamide] | ≥ 80 | ≥ 80 | ≥ 80 | ≥ 80 | 
COc1ccc(Nc2cc(F)cc(F)c2)nc1C(=O)NC1(C#N)CCC1 [Compound P-129, N-(1-cyanocyclobutyl)-6-(3,5-difluoroanilino)-3-methoxy-pyridine-2-carboxamide] | ≥ 80 |  | ≥ 80 | ≥ 80 | 
COc1ccc(Nc2ccc(Cl)c(F)c2)nc1C(=O)NCC(C)(C)C [Compound P-144, 6-(4-chloro-3-fluoro-anilino)-N-(2,2-dimethylpropyl)-3-methoxy-pyridine-2-carboxamide] | ≥ 80 |  | ≥ 80 | ≥ 80 | ≥ 80
COc1ccc(Nc2cc(F)c(Cl)c(F)c2)nc1C(=O)NC(C)(C)C [Compound P-153, N-tert-butyl-6-(4-chloro-3,5-difluoro-anilino)-3-methoxy-pyridine-2-carboxamide] | ≥ 80 | ≥ 80 | ≥ 80 | ≥ 80 | ≥ 80
COc1ccc(Nc2ccc3c(c2)OCO3)nc1C(=O)NC(C)(C)C [Compound P-159, 6-(1,3-benzodioxo1-5-ylamino)-N-tert-butyl-3-methoxy-pyridine-2-carboxamide] |  |  | ≥ 80 |  | 
COc1ccc(Nc2ccc(C#N)c(F)c2)nc1C(=O)NC(C)(C)C [Compound P-164, N-tert-butyl-6-(4-cyano-3-fluoro-anilino)-3-methoxy-pyridine-2-carboxamide] |  | ≥ 80 | ≥ 80 |  | 
COc1ccc(N(C(C)=O)c2cc(F)nc(F)c2)nc1C(=O)NC1CCC1(C)C (centres unmarked) [Compound P-192, 6-[acetyl-(2,6-difluoro-4-pyridyl)amino]-N-(2,2-dimethylcyclobutyl)-3-methoxy-pyridine-2-carboxamide] |  | ≥ 80 | ≥ 80 |  | 

Source: patent US12458021B2, “Microbiocidal derivatives” (SYNGENTA CROP PROTECTION AG, priority 2019, dated 2025)
